Structures can show the parent of a compound that is named as a salt. Square brackets hold non-standard residues; d marks the D form. Peptide text beside a SMILES is read from it. * marks the point of attachment. Propyl(2R-PamO,3-PamO) = CCCCCCCCCCCCCCCC(=O)OC[C@H](C*)OC(=O)CCCCCCCCCCCCCCC
How the values were obtained:
[1] = tested on: leukocytes; assay: Enhancing the number of leukocytes in cyclophosphamide-treated mice; assay type: in vivo, CDF1/Crj mice; settings: percentage relative to mice without cyclophosphamide (100%)
Protocol: Six weeks old female CDF1/Crj mice (5 animals per group) were subjected to the experiment. Each animal was orally administered with cyclophosphamide dissolved in physiological saline solution at a dose of 150 mg/kg. From the next day, each animal was administered subcutaneously with the compound suspended in 5% glucose at the following dosage for five days once a day. On the next day after completion of the administration, about 100 µl of peripheral blood was collected from orbital vein using an EDTA-treated glass capillary. Then, the number of leukocytes was counted using an automatic cell analyzer (Sysmex K-2000, Toa Medical Electronics, Japan).

[2] = tested on: bone marrow cells of BALB/c mice; assay: Enhancing proliferation of bone marrow cells of mice (MTT reduction method); assay type: cell-based; settings: concentration giving 1.3 or more times the proliferation of the group without test compound; 37°C, 3 days
Protocol: Actions of compound (I) produced in the foregoing Examples on enhancing proliferation of bone marrow cells of mice are shown in Table 2.
To a RPMI 1640 culture medium [Bio-Wittaker Inc. (hereinafter abbreviated as BW), U.S.A.] containing 2 x 10⁶/ml of bone marrow cells of BALB/c mice, 2 mM of L-glutamine, 20 µg/ml of gentamicin (Flow Laboratories, Inc., Scotland), 10% fetal calf serum (BW, U.S.A.) was added a test compound in an adequate concentration, which was incubated at 37°C for 3 days in 5% carbon dioxide in air followed by determination of proliferation of the bone marrow cells by the MTT reduction method [Tada et al., Journal of Immunological Methods, Vol. 93, p.157, 1986].

[3] = tested on: Non adherent bone marrow cells of BALB/c mice; assay: Enhancing development of AchE positive cells (fluorescence method); assay type: cell-based; settings: 10 ng/ml; 37°C, 5 days; AchE activity in the group without compound is shown as 1
From the text: Action of compound (I) on enhancing development of acetylcholine esterase (hereinafter abbreviated as AchE) positive cells are shown in Table 4.
The AchE activity was studied according to a fluorescence method (Ishibashi et al., Proceedings of the National Academy of Science U.S.A., Vol. 86, pp. 5953 to 5957, 1989).
Non adherent bone marrow cells of BALB/c mice (1 x 10⁶ cells/ml) were suspended in Iscove's modification of Dulbecco's medium (Gibco BRL Inc., U.S.A.) containing 1% Neutridoma-SP (Boheringer Mannhaim, Germany). Twenty-five µl of a test compound solution in an adequate concentration was inoculated in a 96-well plate. To each of these solutions in the well was added 100 µl of the non adherent bone marrow cells suspension. After incubation at 37°C for 5 days, 25 µl of 6% glutaraldehyde aqueous solution was added to the well. After standing at 4°C for 30 minutes the mixture was centrifuged (850 x g) at 5°C for 5 minutes and the supernatant was removed. […] To this was added 10 µl of 0.4 mM 7-diethylamino-3-(4'-maleimidylphenyl)-4-methylcoumarin aqueous solution and 100 µl of buffer (pH 5.0) containing 0.2% POPE, 1 mM EDTA and 50 mM sodium acetate and fluorescence emission was determined on a fluorometer (excitation wave length: 365 nm, fluorescence wave length: 450 nm).

[4] = tested on: mice; assay: Toxicity test, intravenous administration; assay type: in vivo; settings: intravenous administration at 125 mg/kg
Protocol: Intravenous administration of trisodium salt of compound 1 at 125 mg/kg caused no death in mice.

Molecule `CCCCCCCCCCCCCCCC(=O)OC[C@H](CSC[C@H](NC(=O)CNC(=O)[C@@H](N)CCC(=O)O)C(=O)N[C@@H](CCC(=O)O)C(=O)NCC(=O)N[C@H](CCC(=O)O)C(=O)O)OC(=O)CCCCCCCCCCCCCCC` [Compound 4, (2R,6R)-2-(H-Glu-Gly-amino)-6,7-bis(PamO)-4-THT-Glu-Gly-D-Glu-OH] (H-EGC(Propyl(2R-PamO,3-PamO))EG[dE]-OH) has a Number of leukocytes ([1]; 0.13 mg/kg/day subcutaneously for 5 days after oral cyclophosphamide 150 mg/kg) of 108%.
For `CCCCCCCCCCCCCCCC(=O)OC[C@H](CSC[C@H](NC(=O)CN)C(=O)N[C@@H](CCC(=O)O)C(=O)NCC(=O)N[C@H](CCC(=O)O)C(=O)O)OC(=O)CCCCCCCCCCCCCCC` [Compound 1, (2R,6R)-2-(H-Gly-amino)-6,7-bis(PamO)-4-THT-Glu-Gly-D-Glu-OH] (H-GC(Propyl(2R-PamO,3-PamO))EG[dE]-OH), the Number of leukocytes ([1]; 0.50 mg/kg/day subcutaneously for 5 days after oral cyclophosphamide 150 mg/kg) was 137%, the “Minimal Effective Concentration (MEC, ng/ml)” value [2] was 6.25 ng/mL and the “Degree of AchE Positive Cell” value [3] was 1.92.
In the case of `CCCCCCCCCCCCCCCC(=O)OC[C@H](CSC[C@H](NC(=O)CN)C(=O)N[C@@H](CCC(=O)O)C(=O)NCC(=O)N[C@H](CCC(=O)O)C(=O)O)OC(=O)CCCCCCCCCCCCCCC` [trisodium salt of compound 1] (H-GC(Propyl(2R-PamO,3-PamO))EG[dE]-OH), the death [4] was “no death”.
In the case of `CCCCCCCCCCCCCCCC(=O)OC[C@H](CSC[C@H](NC(=O)[C@@H](N)Cc1ccc(O)cc1)C(=O)N[C@@H](CCC(=O)O)C(=O)NCC(=O)N[C@H](CCC(=O)O)C(=O)O)OC(=O)CCCCCCCCCCCCCCC` [Compound 5, (2R,6R)-2-(H-Tyr-amino)-6,7-bis(PamO)-4-THT-Glu-Gly-D-Glu-OH] (H-YC(Propyl(2R-PamO,3-PamO))EG[dE]-OH), the “Minimal Effective Concentration (MEC, ng/ml)” value [2] was 6.25 ng/mL.
